Data taken from patent US4393225A, “AI-77 Compounds and pharmaceutically acceptable salts thereof” (Asahi Kasei Kogyo Kabushiki Kaisha, priority 1979, dated 1983).

The compounds below were run on ulcer (assay: Anti-ulcer test (restraint and water immersion ulcer in rats, i.p.)). Conditions: Rattus norvegicus, ip; 50 mg/kg i.p.; read-out: % Inhibition of Ulcer.
Assay type: in vivo, Male Wistar rats
Summary of the method: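 Male Wistar rats (~150 g), fasted 24 h, dosed i.p. with compound in physiological saline; 1 h later restrained and immersed to xiphisternum in 21 °C water for 6 h. Stomachs examined microscopically, ulcers scored 0–3, and percent inhibition calculated.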

| Structure (SMILES) | inhibition in vivo at 50 mg/kg [%] |
| --- | --- |
| CCOc1cccc2c1C(=O)OC(C(CC(C)C)NC(=O)C(O)C1OC(=O)CC1NC(=O)C(Cl)(Cl)Cl)C2 (stereo not drawn) [IIIa-5-13] | 33 |
| CCOc1cccc2c1C(=O)OC(C(CC(C)C)NC(=O)C(O)C1OC(=O)CC1NC(=O)C13CC4CC(CC(C4)C1)C3)C2 (stereo not drawn) [IIIa-5-15] | 33 |
| CCOc1cccc2c1C(=O)OC(C(CC(C)C)NC(=O)C(O)C1OC(=O)CC1NC(=O)c1ccccc1)C2 (stereo not drawn) [IIIa-5-16] | 33 |
| CCOc1cccc2c1C(=O)OC(C(CC(C)C)NC(=O)C(O)C1OC(=O)CC1NC(=O)c1ccc3ccccc3c1)C2 (stereo not drawn) [IIIa-5-17] | 33 |
| CCOc1cccc2c1C(=O)OC(C(CC(C)C)NC(=O)C(O)C1OC(=O)CC1NC(=O)C1CC1)C2 (stereo not drawn) [IIIa-5-18] | 44 |
| CCOc1cccc2c1C(=O)OC(C(CC(C)C)NC(=O)C(O)C1OC(=O)CC1NC(=O)Cc1ccccc1)C2 (stereo not drawn) [IIIa-5-20] | 44 |
| CCOc1cccc2c1C(=O)OC(C(CC(C)C)NC(=O)C(O)C1OC(=O)CC1NC(=O)Cc1ccc3ccccc3c1C)C2 (stereo not drawn) [IIIa-5-21] | 33 |
| CCOc1cccc2c1C(=O)OC(C(CC(C)C)NC(=O)C(O)C1OC(=O)CC1NC(=O)c1ccco1)C2 (stereo not drawn) [IIIa-5-22] | 44 |
| CCOc1cccc2c1C(=O)OC(C(CC(C)C)NC(=O)C(O)C1OC(=O)CC1NC(=O)C1CCCO1)C2 (stereo not drawn) [IIIa-5-23] | 44 |
| CCOc1cccc2c1C(=O)OC(C(CC(C)C)NC(=O)C(O)C1OC(=O)CC1NC(=O)CC1CCCCO1)C2 (stereo not drawn) [IIIa-5-24] | 44 |
| CCOc1cccc2c1C(=O)OC(C(CC(C)C)NC(=O)C(O)C1OC(=O)CC1NC(=O)c1cccs1)C2 (stereo not drawn) [IIIa-5-25] | 44 |
| CCOc1cccc2c1C(=O)OC(C(CC(C)C)NC(=O)C(O)C1OC(=O)CC1NC(=O)c1nnnn1C)C2 (stereo not drawn) [IIIa-5-27] | 44 |
| CCOc1cccc2c1C(=O)OC(C(CC(C)C)NC(=O)C(O)C1OC(=O)CC1NC(=O)c1cccn1C(C)=O)C2 (stereo not drawn) [IIIa-5-28] | 44 |
| CCOc1cccc2c1C(=O)OC(C(CC(C)C)NC(=O)C(O)C1OC(=O)CC1NC(=O)c1cccn1C)C2 (stereo not drawn) [IIIa-5-29] | 33 |
| CCOc1cccc2c1C(=O)OC(C(CC(C)C)NC(=O)C(O)C1OC(=O)CC1NC(=O)c1cnc3ccc(OC)cc3c1)C2 (stereo not drawn) [IIIa-5-30] | 33 |
| CCOc1cccc2c1C(=O)OC(C(CC(C)C)NC(=O)C(O)C1OC(=O)CC1NC(=O)CCCBr)C2 (stereo not drawn) [IIIa-5-31] | 44 |
| CCOc1cccc2c1C(=O)OC(C(CC(C)C)NC(=O)C(O)C1OC(=O)CC1NC(=O)C(=O)CC)C2 (stereo not drawn) [IIIa-5-32] | 44 |
| CCOc1cccc2c1C(=O)OC(C(CC(C)C)NC(=O)C(O)C1OC(=O)CC1NC(=O)C1CCCCC1=O)C2 (stereo not drawn) [IIIa-5-33] | 44 |
| CCOc1cccc2c1C(=O)OC(C(CC(C)C)NC(=O)C(O)C1OC(=O)CC1NC(=O)c1cn(C(C)=O)c3ccccc13)C2 (stereo not drawn) [IIIa-5-34] | 33 |
| CCOc1cccc2c1C(=O)OC(C(CC(C)C)NC(=O)C(O)C1OC(=O)CC1NC(=O)c1ccc(OC(C)=O)cc1)C2 (stereo not drawn) [IIIa-5-35] | 44 |
| CCOC(=O)CCC(=O)NC1CC(=O)OC1C(O)C(=O)NC(CC(C)C)C1Cc2cccc(OCC)c2C(=O)O1 (stereo not drawn) [IIIa-5-36] | 44 |

| Structure (SMILES) | inhibition in vivo at 50 mg/kg [%] |
| --- | --- |
| CCOc1cccc2c1C(=O)OC(C(CC(C)C)NC(=O)C(O)C1OC(=O)CC1NC(=O)c1ccc(C)cc1)C2 (stereo not drawn) [IIIa-5-37] | 44 |
| CCOc1cccc2c1C(=O)OC(C(CC(C)C)NC(=O)C(O)C1OC(=O)CC1NC(=O)c1ccc(CCC(C)C)cc1)C2 (stereo not drawn) [IIIa-5-38] | 33 |
| CCOc1cccc2c1C(=O)OC(C(CC(C)C)NC(=O)C(O)C1OC(=O)CC1NC(=O)c1ccc(OC)cc1)C2 (stereo not drawn) [IIIa-5-39] | 44 |
| CCOc1cccc2c1C(=O)OC(C(CC(C)C)NC(=O)C(O)C1OC(=O)CC1NC(=O)CC(C)OC)C2 (stereo not drawn) [IIIa-5-41] | 33 |
| CCCCCOC(C)CC(=O)NC1CC(=O)OC1C(O)C(=O)NC(CC(C)C)C1Cc2cccc(OCC)c2C(=O)O1 (stereo not drawn) [IIIa-5-42] | 33 |
| CCOc1cccc2c1C(=O)OC(C(CC(C)C)NC(=O)C(O)C1OC(=O)CC1NC(=O)CSC)C2 (stereo not drawn) [IIIa-5-43] | 44 |
| CCCCCSCC(=O)NC1CC(=O)OC1C(O)C(=O)NC(CC(C)C)C1Cc2cccc(OCC)c2C(=O)O1 (stereo not drawn) [IIIa-5-44] | 33 |
| CCOc1cccc2c1C(=O)OC(C(CC(C)C)NC(=O)C(O)C1OC(=O)CC1NC(=O)c1ccc(SC)cc1)C2 (stereo not drawn) [IIIa-5-45] | 33 |
| CCCCCSc1ccc(C(=O)NC2CC(=O)OC2C(O)C(=O)NC(CC(C)C)C2Cc3cccc(OCC)c3C(=O)O2)cc1 (stereo not drawn) [IIIa-5-46] | 33 |
| CCOc1cccc2c1C(=O)OC(C(CC(C)C)NC(=O)C(O)C1OC(=O)CC1NC(=O)CC(C)OC(C)=O)C2 (stereo not drawn) [IIIa-5-47] | 33 |
| CCCCCC(=O)OC(C)CC(=O)NC1CC(=O)OC1C(O)C(=O)NC(CC(C)C)C1Cc2cccc(OCC)c2C(=O)O1 (stereo not drawn) [IIIa-5-48] | 33 |
| CCOc1cccc2c1C(=O)OC(C(CC(C)C)NC(=O)C(O)C1OC(=O)CC1NC(=O)c1ccc(C(=O)OC)cc1)C2 (stereo not drawn) [IIIa-5-49] | 33 |
| CCCCCOC(=O)c1ccc(C(=O)NC2CC(=O)OC2C(O)C(=O)NC(CC(C)C)C2Cc3cccc(OCC)c3C(=O)O2)cc1 (stereo not drawn) [IIIa-5-50] | 33 |
| C#CC(=O)NC1CC(=O)OC1C(O)C(=O)NC(CC(C)C)C1Cc2cccc(OCC)c2C(=O)O1 (stereo not drawn) [IIIa-5-51] | 44 |
| C/C=C/C(=O)NC1CC(=O)OC1C(O)C(=O)NC(CC(C)C)C1Cc2cccc(OCC)c2C(=O)O1 (stereo not drawn) [IIIa-5-53] | 33 |
| CCOc1cccc2c1C(=O)OC(C(CC(C)C)NC(=O)C(O)C1OC(=O)CC1NC(=O)CCCCC(C)CC)C2 (stereo not drawn) [IIIa-5-55] | 33 |
| CCOc1cccc2c1C(=O)OC(C(CC(C)C)NC(=O)C(O)C1OC(=O)CC1NC(=O)C=Cc1ccoc1)C2 (stereo not drawn) [IIIa-5-56] | 44 |
| CCOc1cccc2c1C(=O)OC(C(CC(C)C)NC(=O)C(O)C1OC(=O)CC1NC(=O)Cc1cccnc1)C2 (stereo not drawn) [IIIa-5-57] | 33 |
| CCOc1cccc2c1C(=O)OC(C(CC(C)C)NC(=O)C(O)C1OC(=O)CC1NC(=O)C1CCC=CO1)C2 (stereo not drawn) [IIIa-5-58] | 44 |
| CCOc1cccc2c1C(=O)OC(C(CC(C)C)NC(=O)C(O)C1OC(=O)CC1NC(=O)c1cocc1C(=O)O)C2 (stereo not drawn) [IIIa-5-59] | 44 |
| CCOc1cccc2c1C(=O)OC(C(CC(C)C)NC(=O)C(O)C1OC(=O)CC1NC(=O)C1CCCCCCC1)C2 (stereo not drawn) [IIIa-5-60] | 44 |

| Structure (SMILES) | inhibition in vivo at 50 mg/kg [%] |
| --- | --- |
| CCOc1cccc2c1C(=O)OC(C(CC(C)C)NC(=O)C(O)C1OC(=O)CC1NC(=O)CCC1CCCC1)C2 (stereo not drawn) [IIIa-5-61] | 33 |
| CCOc1cccc2c1C(=O)OC(C(CC(C)C)NC(=O)C(O)C1OC(=O)CC1NC(=O)Cc1ccc3ccccc3c1)C2 (stereo not drawn) [IIIa-5-62] | 33 |
| CCOc1cccc2c1C(=O)OC(C(CC(C)C)NC(=O)C(O)C1OC(=O)CC1NC(=O)Cc1ccc(C)cc1)C2 (stereo not drawn) [IIIa-5-63] | 33 |
| CCOc1cccc2c1C(=O)OC(C(CC(C)C)NC(=O)C(O)C1OC(=O)CC1NC(=O)C1CCC(C(=O)OC)CC1)C2 (stereo not drawn) [IIIa-5-66] | 44 |
| CCOc1cccc2c1C(=O)OC(C(CC(C)C)NC(=O)C(O)C1OC(=O)CC1NC(=O)c1ccc(C(C)C)cc1)C2 (stereo not drawn) [IIIa-5-67] | 44 |
| CCOc1cccc2c1C(=O)OC(C(CC(C)C)NC(=O)C(O)C1OC(=O)CC1NC(=O)C1CC3C=CC1C3)C2 (stereo not drawn) [IIIa-5-69] | 33 |
| CCOc1cccc2c1C(=O)OC(C(CC(C)C)NC(=O)C(O)C1OC(=O)CC1NC(=O)C1CCC(OC)CC1)C2 (stereo not drawn) [IIIa-5-71] | 33 |
| CCOc1cccc2c1C(=O)OC(C(CC(C)C)NC(=O)C(O)C1OC(=O)CC1NC(=O)Cn1cnnn1)C2 (stereo not drawn) [IIIa-5-72] | 44 |
| CCCCCc1ccc(C(=O)NC2CC(=O)OC2C(O)C(=O)NC(CC(C)C)C2Cc3cccc(OCC)c3C(=O)O2)cc1 (stereo not drawn) [IIIa-5-73] | 44 |
| CCCC=Cc1ccc(C(=O)NC2CC(=O)OC2C(O)C(=O)NC(CC(C)C)C2Cc3cccc(OCC)c3C(=O)O2)cc1 (stereo not drawn) [IIIa-5-74] | 44 |
| CCOc1cccc2c1C(=O)OC(C(CC(C)C)NC(=O)C(O)C1OC(=O)CC1NC(=O)CCCCCCCCCO)C2 (stereo not drawn) [IIIa-5-75] | 33 |
| CCOc1cccc2c1C(=O)OC(C(CC(C)C)NC(=O)C(O)C1OC(=O)CC1NC(=O)CC1CC1)C2 (stereo not drawn) [IIIa-5-76] | 33 |
| CCOc1cccc2c1C(=O)OC(C(CC(C)C)NC(=O)C(O)C1OC(=O)CC1NC(=O)C(C)=C(C)Br)C2 (stereo not drawn) [IIIa-5-77] | 44 |
| CCOc1cccc2c1C(=O)OC(C(CC(C)C)NC(=O)C(O)C1OC(=O)CC1NC(=O)C=C(C)C)C2 (stereo not drawn) [IIIa-5-78] | 44 |
| CCCCCc1ccc(COc2cccc3c2C(=O)OC(C(CC(C)C)NC(=O)C(O)C2OC(=O)CC2NC(=O)CCC)C3)cc1 (stereo not drawn) [IIIa-5-119] | 33 |
| CCCC=Cc1ccc(COc2cccc3c2C(=O)OC(C(CC(C)C)NC(=O)C(O)C2OC(=O)CC2NC(=O)CCC)C3)cc1 (stereo not drawn) [IIIa-5-120] | 33 |
| CCCC(=O)NC1CC(=O)OC1C(O)C(=O)NC(CC(C)C)C1Cc2cccc(OC(C)C)c2C(=O)O1 (stereo not drawn) [IIIa-5-121] | 33 |
| CC(C)CC(NC(=O)C(O)C1OC(=O)CC1NC(=O)C(Cl)(Cl)Cl)C1Cc2cccc(OCCCC3CCCC3)c2C(=O)O1 (stereo not drawn) [IIIa-5-124] | 33 |
| CCC(=O)COc1cccc2c1C(=O)OC(C(CC(C)C)NC(=O)C(O)C1OC(=O)CC1NC(=O)C(Cl)(Cl)Cl)C2 (stereo not drawn) [IIIa-5-125] | 33 |
| CCOc1cccc2c1C(=O)OC(C(CC(C)C)NC(=O)C(OC(=O)C(Cl)(Cl)Cl)C1OC(=O)CC1NC(=O)C(Cl)(Cl)Cl)C2 (stereo not drawn) [IIIa-6-1] | 33 |
| CC(=O)NC1CC(=O)OC1C(OC(C)=O)C(=O)NC(CC(C)C)C1Cc2cccc(OCC(C)C)c2C(=O)O1 (stereo not drawn) [IIIa-6-2] | 33 |
